Reference: patent US20210260069A1, “IRE1a INHIBITOR IN COMBINATION WITH CANCER [sequence] AGENT FOR CANCER TREATMENT” (Fosun Orinove PharmaTech, Inc., priority 2018, published 2021)

Experiments:
[1] = system: human breast adenocarcinoma MDA-MB231 tumor cells; type: in vivo
Procedure: Orin 1001 was administered by oral gavage in combination with paclitaxel in a xenograft mouse model using female NCr nu/nu mice injected subcutaneously with human breast adenocarcinoma MDA-MB231 tumor cells. To evaluate the effect of Orin 1001 in combination with paclitaxel on early, mid or late stage tumor growth, dosing was initiated either on Day 1 (when tumors reached 225-250 mm^3), Day 14 or Day 28 of tumor growth. Orin 1001 was administered via oral gavage at 300 mg/kg/day in combination with paclitaxel at 10 mg/kg iv, weekly (n=10/group) for up to 60 days.

[2] = system: human ovarian carcinoma A2780 tumor cells; test: A2780 ovarian carcinoma xenograft (Example 18); type: in vivo, female NCr nu/nu mice; conditions: Orin 1001 300 mg/kg/day oral 28 days; paclitaxel 15 mg/kg iv weekly; endpoint 2000 mm^3 or Day 60
Procedure: Orin 1001 was administered by oral gavage in a xenograft mouse model using female NCr nu/nu mice injected subcutaneously with human ovarian carcinoma A2780 tumor cells. Animals were assigned to 4 groups (n=6/group); Vehicle control administered by oral gavage for 28 days, Orin 1001 administered via oral gavage at 300 mg/kg/day for 28 consecutive days, paclitaxel administered weekly by iv at 15 mg/kg, or Orin 1001 administered in combination with paclitaxel.
The percent tumor growth delay was calculated using the following equation: TGD (%)=[T-C/C]×100, where T-C is the difference in time to tumor endpoint from Treated (T) and Control (C).

[3] = system: human glioblastoma U-87 MG tumor cells; test: U-87 MG glioblastoma xenograft (Example 19); type: in vivo, female NCr nu/nu mice
Procedure: Orin 1001 was administered by oral gavage in a xenograft mouse model using female NCr nu/nu mice injected subcutaneously with human glioblastoma U-87 MG tumor cells, a glioblastoma multiforme (GBM) cell line. Animals were assigned to 4 groups (n=6/group); Vehicle control administered by oral gavage for 28 days, Orin 1001 administered via oral gavage at 300 mg/kg/day for 28 consecutive days, paclitaxel administered weekly by iv at 15 mg/kg, or Orin 1001 administered in combination with paclitaxel.
The percent tumor growth delay was calculated using the following equation: TGD (%)=[T-C/C]×100; where T-C is the difference in time to tumor endpoint from Treated (T) and Control (C).
The time to tumor endpoint (TTE) for each animal was further calculated using the following equation: TTE (days)=log 10 (endpoint volume, mm^3)-b/m, where b is the intercept and m is the slope of the line obtained by linear regression of the log-transformed tumor growth data set.

Hep3B-Luc cells = test: Orthotopic Hep3B-luc human liver xenograft model (Example 22); type: in vivo, female BALB/c nude mice
Procedure: The tumor was inoculated by injecting Hep3B-Luc cells (established by WuXi AppTec R&D center) mixed with BD Matrigel in 20 μl (PBS:Matrigel=1:1) into the left lobe of the liver. […] Sorafenib was formulated with Cremophor® EL/ethanol (1:1) and purified water to form a solution of 9 mg/ml. […] Tumor weight was measured at the termination of study. T/Cweight value (in percent) was calculated using the formula: T/Cweight%=Tweight/Cweight×100%, while Tweight and Cweight were the mean tumor weights of the treated and the vehicle control groups, respectively.

IRE1α = target: T1, IRE1α (Mus musculus, UniProt Q9EQY0); test: Liver PD screening assay: XBP-1 splicing analysis of liver after tunicamycin (Example 25); type: in vivo, BALB/c mice; conditions: PO, 2 hours after tunicamycin 1 mg/kg ip, liver 2 hours after dosing, FIG. 23, read-out: ED50 (inhibition of XBP-1 splicing in liver)
T1 construct: from tissue; host or cells: liver of BALB/c mice (in vivo)
Procedure: Example 25 was related to comparative PD/PK data of Orin 1001 VS compound 4315, as its structure shown below, which is an earlier lead of this series of compounds. Tunicamycin was used herein to activate IRE1, then Orin 1001 (also called 4485) or 4315 were given to inhibit the activating effect. […] Each gel panel represents one mouse liver sample as in the figure.
BALB/c mice were injected intraperitoneally with 100 microliters at an equivalent dose of 1 mg/kg tunicamycin solution. Two hours after tunicamycin injection, mice were dosed with compound of interest either PO or IV. Following 2 hours for PO delivery of compound, mice were euthanized according to IACUC protocols using CO2 from a […] source. A 1 cm^3 fragment of the liver for homogenization and extraction of the RNA were collected for further analysis. Total RNA is harvested from cells or tissue using TRIzol according to the manufacturer's procedures. After ethanol precipitation and resuspension of the RNA, RiboGreen (Invitrogen) is used to quantify the yield and normalize the RNA concentration in the source tube containing isolated RNA. RT-PCR is performed by Oligo(dT) priming, and SuperScript II (Invitrogen) transcription using the Amplitaq Gold Kit (Applied Biosystems) according to the manufacturer's protocols. Primers for human XBP-1 are 5_-[…]-3_ (forward, Seq ID No. 8) and 5_-[…]-3_ (reverse, Seq ID No. 9), and for mouse are 5_-[…]-3_ (forward, Seq ID No. 10) and 5_-[…]-3 (Seq ID No. 11). All DNA oligos were purchased from IDT DNA Technologies. PCR is run on a Bio-Rad PTC-100 96-well thermocycler with heating at 94° C. for 30 s, annealing at 58° C. for 30 s, and polymerizing at 72° C. for 30 s for 35 cycles. Reactions are run on 4% precast NuSieve gels from Cambrex and visualized by ethidium bromide staining and UV excitation.
(§1) All PK experiments are standard tests that performed in either WuXi PharmaTech or Charels River Laboratory. 4315 and 4485 (Orin 1001) were dosed PO as a suspension in 1% microcellulose (Sigma) and 50% Sucrouse (Sigma).

[4] = Oral bioavailability test, mouse; conditions: in vivo, 10 mg/kg dose
Procedure: as §1

[5] = Oral bioavailability test, rat; conditions: in vivo, 10 mg/kg dose
Procedure: as §1

[6] = Oral bioavailability test, dog; conditions: in vivo, 4 mg/kg dose
Procedure: as §1

[7] = Orin 1001 300 mg/kg/day oral 28 days, paclitaxel 15 mg/kg iv weekly, endpoint 2000 mm^3 or Day 60

T1 sequence (Q9EQY0 21-977): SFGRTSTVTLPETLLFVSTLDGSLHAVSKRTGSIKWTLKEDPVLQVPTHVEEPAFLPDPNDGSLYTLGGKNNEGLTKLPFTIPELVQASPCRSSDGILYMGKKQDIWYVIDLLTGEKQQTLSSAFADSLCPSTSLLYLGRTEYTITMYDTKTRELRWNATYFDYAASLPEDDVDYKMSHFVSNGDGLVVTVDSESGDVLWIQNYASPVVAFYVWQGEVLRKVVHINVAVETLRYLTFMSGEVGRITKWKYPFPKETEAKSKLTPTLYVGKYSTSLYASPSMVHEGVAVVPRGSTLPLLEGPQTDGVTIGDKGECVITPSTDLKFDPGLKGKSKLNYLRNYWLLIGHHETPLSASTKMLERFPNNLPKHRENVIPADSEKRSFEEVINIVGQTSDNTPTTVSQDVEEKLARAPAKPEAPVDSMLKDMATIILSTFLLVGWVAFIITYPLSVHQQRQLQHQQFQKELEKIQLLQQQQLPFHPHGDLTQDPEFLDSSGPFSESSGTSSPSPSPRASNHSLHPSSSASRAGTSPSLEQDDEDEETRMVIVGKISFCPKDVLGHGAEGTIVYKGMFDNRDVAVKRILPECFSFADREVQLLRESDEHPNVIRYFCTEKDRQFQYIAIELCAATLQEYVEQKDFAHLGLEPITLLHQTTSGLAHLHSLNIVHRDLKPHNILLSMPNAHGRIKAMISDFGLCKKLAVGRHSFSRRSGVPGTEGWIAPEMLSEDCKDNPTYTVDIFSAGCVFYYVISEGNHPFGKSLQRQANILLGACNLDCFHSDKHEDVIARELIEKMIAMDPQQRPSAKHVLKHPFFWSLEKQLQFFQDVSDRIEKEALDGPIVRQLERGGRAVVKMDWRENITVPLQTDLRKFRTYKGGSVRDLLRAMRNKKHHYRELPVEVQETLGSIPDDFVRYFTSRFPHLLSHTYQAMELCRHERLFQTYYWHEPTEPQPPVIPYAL

SMILES: COc1cc2c(C)c(CC(=O)N3CCOCC3)c(=O)oc2c(C=O)c1O [Orin 1001]
- clinical signs of toxicity ([1]; 300 mg/kg/day oral gavage with paclitaxel 10 mg/kg iv weekly, up to 60 days): no clinical signs of toxicity
- tolerability of extended oral dosing ([1]; up to 60 consecutive days): well tolerated
- percent tumor growth delay (TGD) [2]: 29%
- percent tumor growth delay (TGD) [3, 7]: 13%
- time to tumor endpoint (TTE) [3, 7]: 29.3 days
- tumor delay effect over the control ([3]; each agent alone): not very significant
- T/Cweight (%) (Hep3B-Luc cells; mean tumor weight treated / vehicle control, day 28): 56%
- Tumor Weight (g) at day 28 (Hep3B-Luc cells; oral gavage 28 consecutive days, Orin 1001 80 mg/kg/day, sorafenib 45 mg/kg/day): 2.68 ± 1.69 g
- ED50 (IRE1α): < 2 mg/kg
- bioavailability [4]: 63%
- bioavailability [5]: 52%
- bioavailability [6]: 68.5%
